In patent US20230265151A1, “GIP/GLP1 CO-AGONIST COMPOUNDS” (priority 2020, published 2023):
Where two headings read alike, the source gives them in different places. Where a SMILES comes first, the peptide text is derived from it. Side-chain parts run from the residue outwards. [ ]: non-standard residue; d: D form. The star is where a group is joined. αMePhe(2-F) = C[C@](N)(Cc1ccccc1F)C(=O)O; C14 diacid = O=C(O)CCCCCCCCCCCCC(=O)*; αMeY = C[C@](N)(Cc1ccc(O)cc1)C(=O)O; αMeL = CC(C)C[C@](C)(N)C(=O)O; Orn = NCCC[C@H](N)C(=O)O; AEEA = NCCOCCOCC(=O)O; Aib = CC(C)(N)C(=O)O

How the values were obtained:
Assay type in all cases: cell-based
hGIPR = target: T1, hGIPR (Homo sapiens, UniProt P48546); experiment: Functional cAMP formation (HTRF) in HEK-293 clonal cells expressing hGIPR, 0.1% bovine casein, without or with 1.0% human serum albumin; details: for Emax: percent of maximal response to GIP(1-42)NH2; for EC50: geometric mean
T1 construct: expressed in transfected cells
T1 sequence (P48546 22-466): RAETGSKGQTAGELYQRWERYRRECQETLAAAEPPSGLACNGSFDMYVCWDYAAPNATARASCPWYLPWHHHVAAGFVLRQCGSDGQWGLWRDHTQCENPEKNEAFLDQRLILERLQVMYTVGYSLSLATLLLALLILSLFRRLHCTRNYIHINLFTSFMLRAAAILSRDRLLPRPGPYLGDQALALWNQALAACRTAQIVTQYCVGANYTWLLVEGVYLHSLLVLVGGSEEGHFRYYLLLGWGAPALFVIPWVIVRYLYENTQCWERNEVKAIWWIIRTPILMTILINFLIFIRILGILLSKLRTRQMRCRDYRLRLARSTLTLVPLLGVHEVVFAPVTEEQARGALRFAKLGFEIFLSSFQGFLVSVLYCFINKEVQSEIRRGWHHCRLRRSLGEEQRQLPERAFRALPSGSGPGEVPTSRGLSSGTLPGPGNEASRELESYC
In short: (§1)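 Cells were stimulated with peptide for 30 min at 37° C, then lysed in buffer carrying cAMP-d2 and anti-cAMP Eu3+-cryptate for a competitive HTRF read after at least 60 min at room temperature. The 665/620 nm ratio was converted to nM cAMP against a standard curve.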

hGCGR = target: T2, hGCGR (Homo sapiens, UniProt P47871); experiment: Functional cAMP formation (HTRF) in HEK-293 clonal cells expressing hGCGR, 0.1% bovine casein, without or with 1.0% human serum albumin
T2 construct: expressed in transfected cells
T2 sequence (P47871 26-477): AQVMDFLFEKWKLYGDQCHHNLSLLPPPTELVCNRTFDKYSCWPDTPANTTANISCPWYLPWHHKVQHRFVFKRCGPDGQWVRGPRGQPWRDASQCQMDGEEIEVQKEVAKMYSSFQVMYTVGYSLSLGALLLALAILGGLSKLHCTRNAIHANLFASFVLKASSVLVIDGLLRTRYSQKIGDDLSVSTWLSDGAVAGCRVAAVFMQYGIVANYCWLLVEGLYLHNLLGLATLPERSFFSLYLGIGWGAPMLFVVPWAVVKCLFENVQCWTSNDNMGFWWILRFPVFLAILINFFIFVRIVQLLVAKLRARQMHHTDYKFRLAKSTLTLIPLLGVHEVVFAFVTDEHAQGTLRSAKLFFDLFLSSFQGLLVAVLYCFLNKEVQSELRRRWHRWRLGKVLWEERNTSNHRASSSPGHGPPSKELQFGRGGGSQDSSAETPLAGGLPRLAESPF
In short: as §1

hGLP-1R = hGLP-1R (Homo sapiens, UniProt P43220); experiment: Functional cAMP formation (HTRF) in HEK-293 clonal cells expressing hGLP-1R, 0.1% bovine casein, without or with 1.0% human serum albumin; design: expressed in transfected cells; details: for EC50: geometric mean
Sequence of hGLP-1R (P43220 24-463): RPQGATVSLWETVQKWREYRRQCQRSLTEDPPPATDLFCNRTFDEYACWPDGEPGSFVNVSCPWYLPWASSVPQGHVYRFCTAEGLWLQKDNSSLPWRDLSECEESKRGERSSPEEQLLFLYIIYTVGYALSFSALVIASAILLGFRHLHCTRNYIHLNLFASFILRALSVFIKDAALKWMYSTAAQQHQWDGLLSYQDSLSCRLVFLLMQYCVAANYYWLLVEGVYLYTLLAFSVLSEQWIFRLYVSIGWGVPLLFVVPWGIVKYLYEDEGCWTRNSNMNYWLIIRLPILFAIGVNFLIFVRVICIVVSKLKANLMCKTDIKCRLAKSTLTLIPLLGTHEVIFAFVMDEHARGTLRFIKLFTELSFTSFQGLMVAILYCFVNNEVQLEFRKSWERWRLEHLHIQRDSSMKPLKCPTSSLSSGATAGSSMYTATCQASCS
In short: as §1

[1] = hGCGR EC50, nM (SEM, n), cAMP, 37° C., 0.1% bovine casein (no human serum albumin), geometric mean
[2] = HEK293, read-out: hGLP-1R Emax, % ± SEM, cAMP, 37° C., 0.1% bovine casein, percent of maximal response to GLP-1(7-36)NH2, arithmetic mean
[3] = hGLP-1R EC50, nM (SEM, n), cAMP, 37° C., 0.1% bovine casein (no human serum albumin)
[4] = HEK293, 0.1% bovine casein and 1.0% human serum albumin, 37° C., read-out: hGIPR Emax, % ± SEM
[5] = 0.1% bovine casein and 1.0% human serum albumin, 37° C., geometric mean, read-out: hGCGR EC50, nM (SEM, n)

SMILES: CC[C@H](C)[C@H](NC(=O)[C@H](CCCN)NC(=O)[C@H](CC(=O)O)NC(=O)[C@H](CC(C)C)NC(=O)[C@](C)(CC(C)C)NC(=O)[C@@H](NC(=O)[C@H](CO)NC(=O)[C@H](CCc1ccc(O)cc1)NC(=O)[C@H](CC(=O)O)NC(=O)[C@H](CO)NC(=O)[C@@H](NC(=O)[C@](C)(Cc1ccccc1F)NC(=O)[C@@H](NC(=O)CNC(=O)[C@H](CCC(=O)O)NC(=O)C(C)(C)NC(=O)[C@@H](N)Cc1ccc(O)cc1)[C@@H](C)O)[C@@H](C)O)[C@@H](C)CC)C(=O)N[C@@H](C)C(=O)N[C@@H](CCC(N)=O)C(=O)NC(C)(C)C(=O)N[C@@H](CCCCNC(=O)COCCOCCNC(=O)COCCOCCNC(=O)CC[C@H](NC(=O)CCCCCCCCCOc1ccc(C(=O)O)cc1)C(=O)O)C(=O)N[C@@H](Cc1ccccc1)C(=O)N[C@H](C(=O)N[C@H](CCC(=O)O)C(=O)N[C@@](C)(Cc1ccc(O)cc1)C(=O)N[C@@H](CC(C)C)C(=O)N[C@H](C(=O)N[C@@H](CCCCNC(=O)COCCOCCNC(=O)COCCOCCNC(=O)CC[C@H](NC(=O)CCCCCCCCCOc1ccc(C(=O)O)cc1)C(=O)O)C(=O)NCC(=O)NCC(=O)N1CCC[C@H]1C(=O)N[C@@H](CO)C(=O)N[C@@H](CO)C(=O)NCC(=O)N[C@@H](C)C(=O)N1CCC[C@H]1C(=O)N1CCC[C@H]1C(=O)N1CCC[C@H]1C(=O)N[C@@H](CO)C(N)=O)[C@@H](C)CC)[C@@H](C)CC [Example 332]
- Emax (hGIPR; HEK293, read-out: hGIPR Emax, % ± SEM, cAMP, 37° C., 0.1% bovine casein and 1.0% human serum albumin): 96.5%
- EC50 (hGCGR; [1]): > 9950 nM
- EC50 (hGCGR; hGCGR EC50, nM (SEM, n), cAMP, 37° C., 0.1% bovine casein and 1.0% human serum albumin, geometric mean (SEM, n)): > 9950 nM
- Emax (hGLP-1R; HEK293, read-out: hGLP-1R Emax, % ± SEM, cAMP, 37° C., 0.1% bovine casein and 1.0% human serum albumin, percent of maximal response to GLP-1(7-36)NH2): 116%
- Emax (hGLP-1R; [2]): 114%
- EC50 (hGLP-1R; [3]): 0.263 nM

SMILES: CC[C@H](C)[C@H](NC(=O)[C@H](CC(C)C)NC(=O)[C@](C)(Cc1ccc(O)cc1)NC(=O)[C@@H](CCC(=O)O)NC(=O)[C@@H](NC(=O)[C@H](Cc1ccccc1)NC(=O)[C@H](CCCCNC(=O)COCCOCCNC(=O)COCCOCCNC(=O)CCCCCCCCCCCCC(=O)O)NC(=O)C(C)(C)NC(=O)[C@H](CCC(N)=O)NC(=O)[C@H](C)NC(=O)[C@H](CCCCNC(=O)COCCOCCNC(=O)COCCOCCNC(=O)CCCCCCCCCCCCC(=O)O)NC(=O)[C@H](CCCN)NC(=O)[C@H](CC(=O)O)NC(=O)[C@H](CC(C)C)NC(=O)[C@](C)(CC(C)C)NC(=O)[C@@H](NC(=O)[C@H](CO)NC(=O)[C@H](Cc1ccc(OC)cc1)NC(=O)[C@H](CC(=O)O)NC(=O)[C@H](CO)NC(=O)[C@@H](NC(=O)[C@](C)(Cc1ccccc1F)NC(=O)[C@@H](NC(=O)CNC(=O)[C@H](CCC(=O)O)NC(=O)C(C)(C)NC(=O)[C@@H](N)Cc1ccc(O)cc1)[C@@H](C)O)[C@@H](C)O)[C@@H](C)CC)[C@@H](C)CC)C(=O)N[C@@H](CCC(=O)O)C(=O)NCC(=O)NCC(=O)N1CCC[C@H]1C(=O)N[C@@H](CO)C(=O)N[C@@H](CO)C(=O)NCC(=O)N[C@@H](C)C(=O)N1CCC[C@H]1C(=O)N1CCC[C@H]1C(=O)N1CCC[C@H]1C(=O)N[C@@H](CO)C(N)=O [Example 265] (H-Y[Aib]EGT[αMePhe(2-F)]TSDY(Me)SI[αMeL]LD[Orn]K([AEEA-AEEA-C14 diacid])AQ[Aib]K([AEEA-AEEA-C14 diacid])FI[dE][αMeY]LIEGGPSSGAPPPS-NH2)
- Emax (hGIPR; [4]): 96%
- Emax (hGIPR; HEK293, cAMP, 37° C., 0.1% bovine casein, arithmetic mean, read-out: hGIPR Emax, % ± SEM): 100%
- EC50 (hGIPR; cAMP, 37° C., 0.1% bovine casein (no human serum albumin), read-out: hGIPR EC50, nM (SEM, n)): 0.0145 nM
- EC50 (hGCGR; [5]): > 9950 nM
- EC50 (hGCGR; cAMP, 37° C., 0.1% bovine casein (no human serum albumin), geometric mean, read-out: hGCGR EC50, nM (SEM, n)): > 9950 nM
- EC50 (hGLP-1R; cAMP, 37° C., 0.1% bovine casein (no human serum albumin), read-out: hGLP-1R EC50, nM (SEM, n)): 0.262 nM

SMILES: CC[C@H](C)[C@H](NC(=O)[C@H](CCCN)NC(=O)[C@H](CC(=O)O)NC(=O)[C@H](CC(C)C)NC(=O)[C@](C)(CC(C)C)NC(=O)[C@@H](NC(=O)[C@H](CO)NC(=O)[C@H](Cc1ccncc1)NC(=O)[C@H](CC(=O)O)NC(=O)[C@H](CO)NC(=O)[C@@H](NC(=O)[C@](C)(Cc1ccccc1F)NC(=O)[C@@H](NC(=O)CNC(=O)[C@H](CCC(=O)O)NC(=O)C(C)(C)NC(=O)[C@@H](N)Cc1ccc(O)cc1)[C@@H](C)O)[C@@H](C)O)[C@@H](C)CC)C(=O)N[C@@H](C)C(=O)N[C@@H](CCC(N)=O)C(=O)NC(C)(C)C(=O)N[C@@H](CCCCNC(=O)COCCOCCNC(=O)COCCOCCNC(=O)CC[C@H](NC(=O)CCCc1ccc(C(C)(C)C)cc1)C(=O)O)C(=O)N[C@@H](Cc1ccccc1)C(=O)N[C@H](C(=O)N[C@H](CCC(=O)O)C(=O)N[C@@](C)(Cc1ccc(O)cc1)C(=O)N[C@@H](CC(C)C)C(=O)N[C@H](C(=O)N[C@@H](CCCCNC(=O)COCCOCCNC(=O)COCCOCCNC(=O)CC[C@H](NC(=O)CCCc1ccc(C(C)(C)C)cc1)C(=O)O)C(=O)NCC(=O)NCC(=O)N1CCC[C@H]1C(=O)N[C@@H](CO)C(=O)N[C@@H](CO)C(=O)NCC(=O)N[C@@H](C)C(=O)N1CCC[C@H]1C(=O)N1CCC[C@H]1C(=O)N1CCC[C@H]1C(=O)N[C@@H](CO)C(N)=O)[C@@H](C)CC)[C@@H](C)CC [Example 204]
- EC50 (hGIPR; 0.1% bovine casein and 1.0% human serum albumin, 37° C., read-out: hGIPR EC50, nM (SEM, n)): 0.341 nM
- Emax (hGIPR; [4]): 83.3%
- EC50 (hGCGR; [5]): > 9950 nM
- EC50 (hGCGR; cAMP, incubated at 37° C., 0.1% bovine casein (no human serum albumin), geometric mean, read-out: hGCGR EC50, nM (SEM, n)): > 9950 nM
- EC50 (hGLP-1R; 0.1% bovine casein and 1.0% human serum albumin, 37° C., read-out: hGLP-1R EC50, nM (SEM, n)): 2.44 nM
- Emax (hGLP-1R; HEK293, percent of maximal response to GLP-1(7-36)NH2, 37° C., 0.1% bovine casein, arithmetic mean, read-out: hGLP-1R Emax, % ± SEM): 126%

SMILES: CC[C@H](C)[C@H](NC(=O)[C@H](CCCN)NC(=O)[C@H](CC(=O)O)NC(=O)[C@H](CC(C)C)NC(=O)[C@](C)(CC(C)C)NC(=O)[C@@H](NC(=O)C(C)(C)NC(=O)[C@@H](NC(=O)[C@H](CC(=O)O)NC(=O)[C@H](CO)NC(=O)[C@@H](NC(=O)[C@](C)(Cc1ccccc1F)NC(=O)[C@@H](NC(=O)CNC(=O)[C@H](CCC(=O)O)NC(=O)C(C)(C)NC(=O)[C@@H](N)Cc1ccc(O)cc1)[C@@H](C)O)[C@@H](C)O)C(C)C)[C@@H](C)CC)C(=O)N[C@@H](C)C(=O)N[C@@H](CCC(N)=O)C(=O)NC(C)(C)C(=O)N[C@@H](CCC(=O)O)C(=O)N[C@@H](Cc1ccccc1)C(=O)N[C@H](C(=O)N[C@@H](CCCCNC(=O)COCCOCCNC(=O)COCCOCCNC(=O)CC[C@H](NC(=O)CCCCCCCCCOc1ccc(C(=O)O)cc1)C(=O)O)C(=O)N[C@@](C)(Cc1ccc(O)cc1)C(=O)N[C@@H](CC(C)C)C(=O)N[C@H](C(=O)N[C@@H](CCCCNC(=O)COCCOCCNC(=O)COCCOCCNC(=O)CC[C@H](NC(=O)CCCCCCCCCOc1ccc(C(=O)O)cc1)C(=O)O)C(=O)NCC(=O)NCC(=O)N1CCC[C@H]1C(=O)N[C@@H](CO)C(=O)N[C@@H](CO)C(=O)NCC(=O)N[C@@H](C)C(=O)N1CCC[C@H]1C(=O)N1CCC[C@H]1C(=O)N1CCC[C@H]1C(=O)N[C@@H](CO)C(N)=O)[C@@H](C)CC)[C@@H](C)CC [Example 308]
- Emax (hGIPR; HEK293, read-out: hGIPR Emax, % ± SEM, cAMP, 37° C., 0.1% bovine casein, arithmetic mean): 117%
- EC50 (hGIPR; hGIPR EC50, nM (SEM, n), cAMP, 37° C., 0.1% bovine casein (no human serum albumin)): 0.0551 nM
- EC50 (hGCGR; hGCGR EC50, nM (SEM, n), 0.1% bovine casein and 1.0% human serum albumin, 37° C., geometric mean): > 9950 nM
- EC50 (hGCGR; [1]): > 9950 nM
- Emax (hGLP-1R; HEK293, read-out: hGLP-1R Emax, % ± SEM, 0.1% bovine casein and 1.0% human serum albumin, 37° C., percent of maximal response to GLP-1(7-36)NH2): 92.2%
- Emax (hGLP-1R; [2]): 98%
- EC50 (hGLP-1R; [3]): 0.689 nM
